{"source": "patent US10336739B2", "about": "“4-hydroxy-3-(heteroaryl)pyridine-2-one APJ agonists” (BRISTOL-MYERS SQUIBB COMPANY, priority 2015, dated 2019)", "data": [{"target": "human APJ receptor (Homo sapiens (Human), UniProt P35414)", "sequence (P35414 whole entry)": "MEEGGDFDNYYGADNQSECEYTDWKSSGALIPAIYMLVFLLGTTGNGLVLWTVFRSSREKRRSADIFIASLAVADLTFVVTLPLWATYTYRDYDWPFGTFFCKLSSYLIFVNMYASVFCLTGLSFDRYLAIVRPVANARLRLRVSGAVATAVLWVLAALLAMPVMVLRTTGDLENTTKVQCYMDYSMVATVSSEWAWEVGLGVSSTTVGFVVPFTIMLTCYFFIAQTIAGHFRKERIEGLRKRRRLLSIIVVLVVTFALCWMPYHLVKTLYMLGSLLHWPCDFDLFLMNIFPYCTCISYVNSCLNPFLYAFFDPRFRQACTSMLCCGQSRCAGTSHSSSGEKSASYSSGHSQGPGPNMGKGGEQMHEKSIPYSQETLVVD", "test": "Intracellular cAMP accumulation assay (APJ hcAMP, HTRF)", "assay_type": "cell-based", "conditions": "HEK293 cells stably expressing human APJ receptor; inhibition of forskolin-mediated cAMP production; read-out: Human APJ cAMP EC50 Potency range", "in_short": "(§1)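 cAMP inhibition was quantified by HTRF against a cAMP standard curve, with EC50 fitted to a variable-slope sigmoidal curve. Compounds acted on 5,000 APJ-stable HEK293 cells for 30 minutes at room temperature alongside 2 μM forskolin and […] IBMX. Detection reagents were incubated 60 min.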", "units": {"EC50": "nM"}, "values": [{"compound": "CCCCc1nc(O)c(-c2nnc(CNC)o2)c(O)c1-c1c(OC)cccc1OC", "note": "[Example 154, 6-butyl-5-(2,6-dimethoxyphenyl)-3-{5-[(methylamino)methyl]-1,3,4-oxadiazol-2-yl}pyridine-2,4-diol]", "EC50": "10 to 100"}]}, {"target": "human APJ receptor (Homo sapiens (Human), UniProt P35414)", "test": "Intracellular cAMP accumulation assay (APJ hcAMP, HTRF)", "assay_type": "cell-based", "conditions": "HEK293 cells stably expressing human APJ receptor; inhibition of forskolin-mediated cAMP production; read-out: hAPJ cAMP EC50 (nM) Potency range", "in_short": "as §1", "units": {"EC50": "nM"}, "values": [{"compound": "CCCCc1nc(O)c(-c2nnc(CC(=O)Nc3cccnc3)o2)c(O)c1-c1c(OC)cccc1OC", "note": "[Example 252, 2-{5-[6-butyl-5-(2,6-dimethoxyphenyl)-2,4-dihydroxy-pyridin-3-yl]-1,3,4-oxadiazol-2-yl}-N-(pyridin-3-yl)acetamide]", "EC50": "0.01 to 10"}, {"compound": "CCCCc1nc(O)c(-c2nnc(CC(=O)NCCc3ccc(S(N)(=O)=O)cc3)o2)c(O)c1-c1c(OC)cccc1OC", "note": "[Example 257, 2-{5-[6-butyl-5-(2,6-dimethoxyphenyl)-2,4-dihydroxy-pyridin-3-yl]-1,3,4-oxadiazol-2-yl}-N-[2-(4-sulfamoylphenyl)ethyl]acetamide]", "EC50": "0.01 to 10"}]}, {"target": "human APJ receptor (Homo sapiens (Human), UniProt P35414)", "test": "Intracellular cAMP accumulation assay (APJ hcAMP, HTRF)", "assay_type": "cell-based", "conditions": "HEK293 cells stably expressing human APJ receptor; inhibition of forskolin-mediated cAMP production; read-out: hAPJ cAMP EC50 Potency range", "in_short": "as §1", "units": {"EC50": "nM"}, "values": [{"compound": "CCOCc1nc(O)c(-c2nnc(Cc3ccc(Cl)cc3)o2)c(O)c1-c1c(OC)cc(F)cc1OC", "note": "[Example 214, 3-{5-[(4-chlorophenyl)methyl]-1,3,4-oxadiazol-2-yl}-6-(ethoxymethyl)-5-(4-fluoro-2,6-dimethoxyphenyl) pyridine-2,4-diol]", "EC50": "0.01 to 10"}, {"compound": "CCCCc1nc(O)c(-c2nnc(CC3CCCCC3)o2)c(O)c1-c1c(OC)cccc1OC", "note": "[Example 67, 6-butyl-3-[5-(cyclohexylmethyl)-1,3,4-oxadiazol-2-yl]-5-(2,6-dimethoxyphenyl) pyridine-2,4-diol]", "EC50": "0.01 to 10"}, {"compound": "CCCCc1nc(O)c(-c2nnc(CNC(=O)c3cccnc3)o2)c(O)c1-c1c(OC)cccc1OC", "note": "[Example 160, N-({5-[6-butyl-5-(2,6-dimethoxyphenyl)-2,4-dihydroxypyridin-3-yl]-1,3,4-oxadiazol-2-yl}methyl)pyridine-3-carboxamide]", "EC50": "0.01 to 10"}, {"compound": "CCCCc1nc(O)c(-c2nnc(Cc3nc(Cc4ccccc4)no3)o2)c(O)c1-c1c(OC)cccc1OC", "note": "[Example 108, 3-{5-[(3-benzyl-1,2,4-oxadiazol-5-yl)methyl]-1,3,4-oxadiazol-2-yl}-6-butyl-5-(2,6-dimethoxyphenyl) pyridine-2,4-diol]", "EC50": "0.01 to 10"}, {"compound": "CCCCc1nc(O)c(-c2nnc(CN(C)C(=O)c3ccncc3)o2)c(O)c1-c1c(OC)cccc1OC", "note": "[Example 159, N-({5-[6-butyl-5-(2,6-dimethoxyphenyl)-2,4-dihydroxypyridin-3-yl]-1,3,4-oxadiazol-2-yl}methyl)-N-methylpyridine-4-carboxamide]", "EC50": "0.01 to 10"}, {"compound": "CCCCc1nc(O)c(-c2nnc(COc3ccc(Cl)c(Cl)c3)o2)c(O)c1-c1c(OC)cccc1OC", "note": "[Example 50, 6-butyl-3-[5-(3,4-dichlorophenoxy-methyl)-1,3,4-oxadiazol-2-yl]-5-(2,6-dimethoxyphenyl) pyridine-2,4-diol]", "EC50": "10 to 100"}, {"compound": "CCCCc1nc(O)c(-c2nnc(Cc3ccc(Cl)c(F)c3)o2)c(O)c1-c1c(OC)cccc1OC", "note": "[Example 71, 6-butyl-3-{5-[(4-chloro-3-fluorophenyl)methyl]-1,3,4-oxadiazol-2-yl}-5-(2,6-dimethoxyphenyl) pyridine-2,4-diol]", "EC50": "0.01 to 10"}, {"compound": "CCCCc1nc(O)c(-c2nnc(Cc3nnc(-c4ccccn4)o3)o2)c(O)c1-c1c(OC)cccc1OC", "note": "[Example 207, 6-butyl-5-(2,6-dimethoxyphenyl)-3-(5-{[5-(pyridin-2-yl)-1,3,4-oxadiazol-2-yl]methyl}-1,3,4-oxadiazol-2-yl)pyridine-2,4-diol]", "EC50": "0.01 to 10"}, {"compound": "CCCCc1nc(O)c(-c2nnc(Cc3noc4ccccc34)o2)c(O)c1-c1c(Cl)cccc1Cl", "note": "[Example 86, 3-[5-(1,2-benzoxazol-3-ylmethyl)-1,3,4-oxadiazol-2-yl]-6-butyl-5-(2,6-dichlorophenyl) pyridine-2,4-diol]", "EC50": "0.01 to 10"}, {"compound": "C=CCCc1nc(O)c(-c2nnc(Cc3noc4ccccc34)o2)c(O)c1-c1c(OC)cccc1OC", "note": "[Example 27, 3-[5-(1,2-benzoxazol-3-ylmethyl)-1,3,4-oxadiazol-2-yl]-6-(but-3-en-1-yl)-5-(2,6-dimethoxyphenyl) pyridine-2,4-diol]", "EC50": "0.01 to 10"}]}]}
